# Tests used:
# Format in all cases: cell-based, Acinetobacter baumannii
# A. baumannii isolates [1] = test: Checkerboard testing (compound (I)/antibacterial agent interaction, FIC index)
# Description: Checkerboard interaction studies were performed using 5 isolates from each of the sub-groups and time kill studies were performed using 3 isolates from each sub-group.
# Checkerboards (20 isolates, 5 per sub-group) were prepared so as to contain multiple concentrations of compound (I) with different additional antibacterial agents (amikacin, gentamicin, colistin, meropenem and tobramycin) as follows:
# Serial two-fold dilutions of the antimicrobial agents alone or in combination in wells of 96 well microtiter plates were inoculated with the appropriate inoculum so that each well contained approximately 4-5×10^4 CFU/ml. Plates were incubated at 35° C. for 16-20 hours. Combination concentrations were tested between 0.25×MIC and 2×MIC. Growth and sterility controls were also included in each plate.
# Synergy, indifference and antagonism were calculated based upon the use of the fractional inhibitory concentration (FIC) indices as described by Pillai, Moellering & Eliopoulos (2005) whereby:
# Synergism=FIC index of ≦0.5 Indifference=FIC index >1 but ≦4 Additivity >0.5 to 1 Antagonism=FIC index of >4
# Checkerboard studies were carried out as described in General Procedures using twenty different A. baumannii isolates with 5 per sub-group of: susceptible, amikacin-resistant, colistin-resistant and meropenem-resistant.
# A. baumannii isolates [2] = test: Individual antimicrobial susceptibility testing (MIC, broth microdilution, CLSI)
# Description: In the antimicrobial susceptibility testing 77 isolates of A. baumannii (from 2010) in the following sub-groups were tested: • 22 isolates generally susceptible to antimicrobial agents (“Sus”) • 20 carbapenem-resistant isolates (e.g. “MPM-R”) • 20 aminoglycoside-resistant isolates (e.g. “AMK-R”) • 15 colistin-resistant isolates. (e.g. “COL-R”)
# Minimum inhibitory concentration (MIC) endpoints were determined by broth microdilution according to CLSI guidelines (CLSI, M7-A8 & M100-S22, 2012). Panels were prepared at IHMA using cation-adjusted Mueller-Hinton broth. Colonies were taken directly from a second-pass culture plate and prepared to a suspension equivalent of the 0.5 McFarland standard using normal saline.
# Testing was carried out as described in the General Procedures to determine minimum inhibitory concentration (MIC) end points for compound (I), amikacin, colistin, gentamicin, meropenem and tobramycin, for 77 A. baumannii isolates. Under the “MIC (μg/ml)” heading, the first column (Range) indicates the MIC end points for the particular number (N) of isolates tested, the second column (50%) provides an estimate of the concentration that inhibits 50% (MIC50) of bacterial isolates tested, and the third column (90%) provides an estimate of the concentration that inhibits 90% of the bacterial isolates tested.
# [3] = tested on: A. baumannii CIP 5377, CIP 7034, AYE, SAN, RCH; test: Antimicrobial susceptibility testing (MIC, broth microdilution, EUCAST; Example 5)
# Description: A. baumannii CIP 5377 (ATCC® 17978): low cephalosporinase producing strain, susceptible to meropenem and amikacin, isolated in an infected patient
# A. baumannii CIP 7034: low cephalosporinase producing strain, susceptible to meropenem and amikacin A. baumannii AYE ATCC® BAA1710™: extended spectrum beta-lactamase producing strain susceptible to meropenem and resistant to amikacin
# A. baumannii SAN-94040 (SAN): cephalosporinase-overproducing strain, susceptible to meropenem and intermediate to amikacin and resistant to fluoroquinolones, isolated from blood cultures of an intensive care patient with nosocomial pneumonia from North Africa (Algeria).
# A. baumannii RCH-69: cephalosporinase producing strain; low susceptibility to imipenem and resistant to amikacin.
# A. baumannii isolates [4] = test: Time kill study (Example 4); settings: for Time to kill 99.9%: alone
# Description: A total of 12 isolates were tested (three per sub-group either susceptible, meropenem-resistant, amikacin-resistant or colistin-resistant). Two combinations were tested per isolate. Time-kill kinetics were performed by testing compound (I) and an additional antibacterial agent (amikacin, colistin and meropenem) individually at 1× and 4× the corresponding MIC of each antibacterial agent. […] Samples were taken at 0, 2, 4, 8 and 24 hours in order to determine colony forming units (CFU/mL).
# Time-kill studies were carried out as described in General Procedures using combinations of compound (I) with amikacin, meropenem and colistin, respectively.
# [5] = A. baumannii 441142, colistin-resistant
# [6] = A. baumannii 441160, colistin-resistant
# [7] = A. baumannii 463996, colistin-resistant
# [8] = A. baumannii 466936, colistin-resistant
# [9] = A. baumannii 517303, colistin-resistant
# [10] = A. baumannii 618649, meropenem-resistant
# [11] = A. baumannii 625917, meropenem-resistant
# [12] = A. baumannii 628760, susceptible
# [13] = A. baumannii 637723, amikacin-resistant
# [14] = A. baumannii 638115, amikacin-resistant
# [15] = A. baumannii 650216, meropenem-resistant
# [16] = A. baumannii 655932, amikacin-resistant
# [17] = A. baumannii 661954, amikacin-resistant
# [18] = A. baumannii 667848, meropenem-resistant
# [19] = A. baumannii 668116, susceptible
# [20] = A. baumannii 668239, amikacin-resistant
# [21] = A. baumannii 670348, susceptible
# [22] = A. baumannii 671050, meropenem-resistant
# [23] = A. baumannii 672190, susceptible
# [24] = A. baumannii 674340, susceptible
# [25] = Amikacin-resistant isolates, N=20
# [26] = Colistin-resistant isolates, N=15
# [27] = Meropenem-resistant isolates, N=20
substance,measurement,setting,value
colistin,MIC,A. baumannii isolates [1]; [5],8 µg/mL
same,MIC,A. baumannii isolates [1]; [6],4 µg/mL
same,MIC,A. baumannii isolates [1]; [7],4 µg/mL
same,MIC,A. baumannii isolates [1]; [8],8 µg/mL
same,MIC,A. baumannii isolates [1]; [9],>1024 µg/mL
same,MIC,A. baumannii isolates [1]; [10],0.5 µg/mL
same,MIC,A. baumannii isolates [1]; [11],0.5 µg/mL
same,MIC,A. baumannii isolates [1]; [12],0.5 µg/mL
same,MIC,A. baumannii isolates [1]; [13],0.5 µg/mL
same,MIC,A. baumannii isolates [1]; [14],0.5 µg/mL
same,MIC,A. baumannii isolates [1]; [15],0.25 µg/mL
same,MIC,A. baumannii isolates [1]; [16],0.5 µg/mL
same,MIC,A. baumannii isolates [1]; [17],1 µg/mL
same,MIC,A. baumannii isolates [1]; [18],0.5 µg/mL
same,MIC,A. baumannii isolates [1]; [19],1 µg/mL
same,MIC,A. baumannii isolates [1]; [20],0.5 µg/mL
same,MIC,A. baumannii isolates [1]; [21],0.5 µg/mL
same,MIC,A. baumannii isolates [1]; [22],0.5 µg/mL
same,MIC,A. baumannii isolates [1]; [23],0.5 µg/mL
same,MIC,A. baumannii isolates [1]; [24],0.5 µg/mL
same,mode MIC,"A. baumannii isolates [2]; 77 isolates, FIG. 1 and 2",lowest mode MIC
same,MIC 50%,"A. baumannii isolates [2]; All isolates, N=77",0.5 µg/mL
same,MIC 90%,"A. baumannii isolates [2]; All isolates, N=77",8 µg/mL
same,MIC 50%,A. baumannii isolates [2]; [25],0.5 µg/mL
same,MIC 90%,A. baumannii isolates [2]; [25],1 µg/mL
same,MIC Range,A. baumannii isolates [2]; [25],0.25 to 2 µg/mL
same,MIC 50%,A. baumannii isolates [2]; [26],8 µg/mL
same,MIC 90%,A. baumannii isolates [2]; [26],>32 µg/mL
same,MIC 50%,A. baumannii isolates [2]; [27],0.5 µg/mL
same,MIC 90%,A. baumannii isolates [2]; [27],1 µg/mL
same,MIC Range,A. baumannii isolates [2]; [27],0.25 to 1 µg/mL
same,MIC 50%,"A. baumannii isolates [2]; Susceptible isolates, N=22",0.5 µg/mL
same,MIC 90%,"A. baumannii isolates [2]; Susceptible isolates, N=22",0.5 µg/mL
same,MIC Range,"A. baumannii isolates [2]; Susceptible isolates, N=22",0.06 to 1 µg/mL
same,MIC,[3]; A. baumannii AYE,1 µg/mL
same,MIC,[3]; A. baumannii CIP 5377,0.5 µg/mL
same,MIC,[3]; A. baumannii CIP 7034,0.5 µg/mL
same,MIC,[3]; A. baumannii RCH,0.5 µg/mL
same,MIC,[3]; A. baumannii SAN,1 µg/mL
same,Time to kill 99.9%,"A. baumannii isolates [4]; AMK-R-1, 1xMIC",1.4 h
same,Time to kill 99.9%,"A. baumannii isolates [4]; AMK-R-1, 4xMIC",1.3 h
same,Time to kill 99.9%,"A. baumannii isolates [4]; AMK-R-2, 1xMIC",2.3 h
same,Time to kill 99.9%,"A. baumannii isolates [4]; AMK-R-2, 4xMIC",1.8 h
same,Time to kill 99.9%,"A. baumannii isolates [4]; AMK-R-3, 1xMIC",>24 h^
same,Time to kill 99.9%,"A. baumannii isolates [4]; AMK-R-3, 4xMIC",2.9 h
same,Time to kill 99.9%,"A. baumannii isolates [4]; COL-R-1, 1xMIC",2.8 h
same,Time to kill 99.9%,"A. baumannii isolates [4]; COL-R-1, 4xMIC",2.3 h
same,Time to kill 99.9%,"A. baumannii isolates [4]; COL-R-2, 1xMIC",>24 h^
same,Time to kill 99.9%,"A. baumannii isolates [4]; COL-R-2, 4xMIC",>24 h
same,Time to kill 99.9%,"A. baumannii isolates [4]; COL-R-3, 1xMIC",2.7 h
same,Time to kill 99.9%,"A. baumannii isolates [4]; COL-R-3, 4xMIC",2.1 h
same,Time to kill 99.9%,"A. baumannii isolates [4]; MPM-R-1 (second line, Table 8 r14), 1xMIC",1.3 h
same,Time to kill 99.9%,"A. baumannii isolates [4]; MPM-R-1 (second line, Table 8 r14), 4xMIC",1.6 h
same,Time to kill 99.9%,"A. baumannii isolates [4]; MPM-R-1, 1xMIC",5.0 h
same,Time to kill 99.9%,"A. baumannii isolates [4]; MPM-R-1, 4xMIC",8.1 h
same,Time to kill 99.9%,"A. baumannii isolates [4]; MPM-R-3, 1xMIC",2 h
same,Time to kill 99.9%,"A. baumannii isolates [4]; MPM-R-3, 4xMIC",5.1 h
same,Time to kill 99.9%,"A. baumannii isolates [4]; Sus-1, 1xMIC",>24 h^
same,Time to kill 99.9%,"A. baumannii isolates [4]; Sus-1, 4xMIC",>24 h
same,Time to kill 99.9%,"A. baumannii isolates [4]; Sus-2, 4xMIC",6.3 h
same,Time to kill 99.9%,"A. baumannii isolates [4]; Sus-3, 1xMIC",1.6 h
same,Time to kill 99.9%,"A. baumannii isolates [4]; Sus-3, 4xMIC",3.6 h
same,effect in time-kill studies when tested alone,A. baumannii isolates [4]; alone at 1× or 4×MIC,generally bactericidal
same,MIC,A. baumannii isolates [4]; isolate AMK-R-1,0.5 µg/mL
same,MIC,A. baumannii isolates [4]; isolate AMK-R-2,0.5 µg/mL
same,MIC,A. baumannii isolates [4]; isolate AMK-R-3,0.25 µg/mL
same,MIC,A. baumannii isolates [4]; isolate COL-R-1,8 µg/mL
same,MIC,A. baumannii isolates [4]; isolate COL-R-2,4 µg/mL
same,MIC,A. baumannii isolates [4]; isolate COL-R-3,16 µg/mL
same,MIC,A. baumannii isolates [4]; isolate MPM-R-1,0.25 µg/mL
same,MIC,A. baumannii isolates [4]; isolate MPM-R-3,1 µg/mL
same,MIC,A. baumannii isolates [4]; isolate Sus-1,1 µg/mL
same,MIC,A. baumannii isolates [4]; isolate Sus-2,0.5 µg/mL
same,MIC,A. baumannii isolates [4]; isolate Sus-3,0.25 µg/mL
same,MIC,"A. baumannii isolates [4]; isolate printed MPM-R-1 (second such line of Table 8, r14)",1 µg/mL
gentamicin,MIC,A. baumannii isolates [1]; [5],>1024 µg/mL
same,MIC,A. baumannii isolates [1]; [6],>1024 µg/mL
same,MIC,A. baumannii isolates [1]; [7],2 µg/mL
same,MIC,A. baumannii isolates [1]; [8],4 µg/mL
same,MIC,A. baumannii isolates [1]; [9],512 µg/mL
same,MIC,A. baumannii isolates [1]; [10],0.5 µg/mL
same,MIC,A. baumannii isolates [1]; [11],1 µg/mL
same,MIC,A. baumannii isolates [1]; [12],1 µg/mL
same,MIC,A. baumannii isolates [1]; [13],128 µg/mL
same,MIC,A. baumannii isolates [1]; [14],4 µg/mL
same,MIC,A. baumannii isolates [1]; [15],64 µg/mL
same,MIC,A. baumannii isolates [1]; [16],128 µg/mL
same,MIC,A. baumannii isolates [1]; [17],16 µg/mL
same,MIC,A. baumannii isolates [1]; [18],256 µg/mL
same,MIC,A. baumannii isolates [1]; [19],0.5 µg/mL
same,MIC,A. baumannii isolates [1]; [20],1024 µg/mL
same,MIC,A. baumannii isolates [1]; [21],1 µg/mL
same,MIC,A. baumannii isolates [1]; [22],8 µg/mL
same,MIC,A. baumannii isolates [1]; [23],1 µg/mL
same,MIC,A. baumannii isolates [1]; [24],1 µg/mL
same,MIC 50%,"A. baumannii isolates [2]; All isolates, N=77",32 µg/mL
same,MIC 90%,"A. baumannii isolates [2]; All isolates, N=77",>32 µg/mL
same,MIC 50%,A. baumannii isolates [2]; [25],>32 µg/mL
same,MIC 90%,A. baumannii isolates [2]; [25],>32 µg/mL
same,MIC 50%,A. baumannii isolates [2]; [26],32 µg/mL
same,MIC 90%,A. baumannii isolates [2]; [26],>32 µg/mL
same,MIC 50%,A. baumannii isolates [2]; [27],>32 µg/mL
same,MIC 90%,A. baumannii isolates [2]; [27],>32 µg/mL
same,MIC 50%,"A. baumannii isolates [2]; Susceptible isolates, N=22",1 µg/mL
same,MIC 90%,"A. baumannii isolates [2]; Susceptible isolates, N=22",2 µg/mL
same,MIC Range,"A. baumannii isolates [2]; Susceptible isolates, N=22",0.06 to 2 µg/mL

# From US20150065416A1, “NOVEL DRUG COMBINATION” (FAB PHARMA SAS, priority 2013, published 2015)
